Laboratory results as given in the NIST ThermoML archive (doi:10.1021/je300632p).

Assay: xn = mol fraction of the nth substance listed
Conditions: 101 kPa, Liquid; for viscosity: Falling or rolling sphere viscometry; for mass density: Vibrating tube method

CCO [ethanol] + CCCCO
x1 = 1
Conditions	mass density [kg/m3]	viscosity [mPa·s]
293.15 K	790.13	1.151
298.15 K	785.86	1.069
303.15 K	781.56	0.973
308.15 K	777.23	0.888
313.15 K	772.86	0.813
318.15 K	768.44	0.755
323.15 K	763.97	0.684
328.15 K	759.44	0.63

CCO [ethanol] + CCCO
x1 = 1
Conditions	mass density [kg/m3]	viscosity [mPa·s]
293.15 K	790.13	1.151
298.15 K	785.86	1.069
303.15 K	781.56	0.973
308.15 K	777.23	0.888
313.15 K	772.86	0.813
318.15 K	768.44	0.755
323.15 K	763.97	0.684
328.15 K	759.44	0.63

CCCCCO [pentan-1-ol] + CCO
Conditions	mass density [kg/m3]	viscosity [mPa·s]
293.15 K, x2 = 0	814.16	3.939
293.15 K, x2 = 0.101	812.81	3.557
293.15 K, x2 = 0.2	811.19	3.218
293.15 K, x2 = 0.3	809.41	2.884
293.15 K, x2 = 0.401	807.59	2.584
293.15 K, x2 = 0.5	805.44	2.272
293.15 K, x2 = 0.6	803.06	2.025
293.15 K, x2 = 0.7	800.17	1.784
293.15 K, x2 = 0.801	797.32	1.551
293.15 K, x2 = 0.901	793.6	1.349
298.15 K, x2 = 0	810.52	3.412
298.15 K, x2 = 0.101	809.14	3.098
298.15 K, x2 = 0.2	807.5	2.818
298.15 K, x2 = 0.3	805.67	2.541
298.15 K, x2 = 0.401	803.79	2.288
298.15 K, x2 = 0.5	801.6	2.021
298.15 K, x2 = 0.6	799.16	1.81
298.15 K, x2 = 0.7	796.21	1.603
298.15 K, x2 = 0.801	793.25	1.399
298.15 K, x2 = 0.901	789.45	1.222
303.15 K, x2 = 0	806.84	2.971
303.15 K, x2 = 0.101	805.44	2.713
303.15 K, x2 = 0.2	803.76	2.48
303.15 K, x2 = 0.3	801.9	2.249
303.15 K, x2 = 0.401	799.97	2.034
303.15 K, x2 = 0.5	797.73	1.805
303.15 K, x2 = 0.6	795.24	1.624
303.15 K, x2 = 0.7	792.21	1.444
303.15 K, x2 = 0.801	789.17	1.265
303.15 K, x2 = 0.901	785.28	1.109
308.15 K, x2 = 0	803.14	2.599
308.15 K, x2 = 0.101	801.71	2.385
308.15 K, x2 = 0.2	800	2.192
308.15 K, x2 = 0.3	798.1	1.997
308.15 K, x2 = 0.401	796.12	1.814
308.15 K, x2 = 0.5	793.83	1.617
308.15 K, x2 = 0.6	791.27	1.461
308.15 K, x2 = 0.7	788.18	1.304
308.15 K, x2 = 0.801	785.06	1.147
308.15 K, x2 = 0.901	781.06	1.01
313.15 K, x2 = 0	799.42	2.283
313.15 K, x2 = 0.101	797.95	2.105
313.15 K, x2 = 0.2	796.2	1.943
313.15 K, x2 = 0.3	794.26	1.779
313.15 K, x2 = 0.401	792.24	1.623
313.15 K, x2 = 0.5	789.89	1.452
313.15 K, x2 = 0.6	787.27	1.317
313.15 K, x2 = 0.7	784.11	1.181
313.15 K, x2 = 0.801	780.91	1.042
313.15 K, x2 = 0.901	776.81	0.921
318.15 K, x2 = 0	795.64	2.014
318.15 K, x2 = 0.101	794.14	1.865
318.15 K, x2 = 0.2	792.36	1.728
318.15 K, x2 = 0.3	790.38	1.59
318.15 K, x2 = 0.401	788.31	1.455
318.15 K, x2 = 0.5	785.91	1.308
318.15 K, x2 = 0.6	783.23	1.192
318.15 K, x2 = 0.7	780	1.072
318.15 K, x2 = 0.801	776.71	0.949
318.15 K, x2 = 0.901	772.51	0.841
323.15 K, x2 = 0	791.84	1.784
323.15 K, x2 = 0.101	790.29	1.658
323.15 K, x2 = 0.2	788.48	1.543
323.15 K, x2 = 0.3	786.46	1.426
323.15 K, x2 = 0.401	784.34	1.31
323.15 K, x2 = 0.5	781.88	1.181
323.15 K, x2 = 0.6	779.14	1.08
323.15 K, x2 = 0.7	775.83	0.975
323.15 K, x2 = 0.801	772.46	0.866
323.15 K, x2 = 0.901	768.16	0.771
328.15 K, x2 = 0	787.98	1.586
328.15 K, x2 = 0.101	786.4	1.48
328.15 K, x2 = 0.2	784.55	1.382
328.15 K, x2 = 0.3	782.49	1.283
328.15 K, x2 = 0.401	780.32	1.182
328.15 K, x2 = 0.5	777.8	1.07
328.15 K, x2 = 0.6	775	0.982
328.15 K, x2 = 0.7	771.63	0.889
328.15 K, x2 = 0.801	768.16	0.792
328.15 K, x2 = 0.901	763.76	0.707
